Data on 25 molecules can be found in US9493396B2, “Substituted naphthalene compounds as calcium sensing receptor modulators” (LUPIN ATLANTIS HOLDINGS SA, priority 2013, dated 2016).

Counter-ions that a name gives are not always drawn.

For the experiment, the target named is T1, Calcium sensing receptor (hCaSR) (Homo sapiens, UniProt P41180).
T1 construct: expressed in transfected cells; host or cells: HEK293 (stably transfected)
T1 sequence (P41180 20-1078): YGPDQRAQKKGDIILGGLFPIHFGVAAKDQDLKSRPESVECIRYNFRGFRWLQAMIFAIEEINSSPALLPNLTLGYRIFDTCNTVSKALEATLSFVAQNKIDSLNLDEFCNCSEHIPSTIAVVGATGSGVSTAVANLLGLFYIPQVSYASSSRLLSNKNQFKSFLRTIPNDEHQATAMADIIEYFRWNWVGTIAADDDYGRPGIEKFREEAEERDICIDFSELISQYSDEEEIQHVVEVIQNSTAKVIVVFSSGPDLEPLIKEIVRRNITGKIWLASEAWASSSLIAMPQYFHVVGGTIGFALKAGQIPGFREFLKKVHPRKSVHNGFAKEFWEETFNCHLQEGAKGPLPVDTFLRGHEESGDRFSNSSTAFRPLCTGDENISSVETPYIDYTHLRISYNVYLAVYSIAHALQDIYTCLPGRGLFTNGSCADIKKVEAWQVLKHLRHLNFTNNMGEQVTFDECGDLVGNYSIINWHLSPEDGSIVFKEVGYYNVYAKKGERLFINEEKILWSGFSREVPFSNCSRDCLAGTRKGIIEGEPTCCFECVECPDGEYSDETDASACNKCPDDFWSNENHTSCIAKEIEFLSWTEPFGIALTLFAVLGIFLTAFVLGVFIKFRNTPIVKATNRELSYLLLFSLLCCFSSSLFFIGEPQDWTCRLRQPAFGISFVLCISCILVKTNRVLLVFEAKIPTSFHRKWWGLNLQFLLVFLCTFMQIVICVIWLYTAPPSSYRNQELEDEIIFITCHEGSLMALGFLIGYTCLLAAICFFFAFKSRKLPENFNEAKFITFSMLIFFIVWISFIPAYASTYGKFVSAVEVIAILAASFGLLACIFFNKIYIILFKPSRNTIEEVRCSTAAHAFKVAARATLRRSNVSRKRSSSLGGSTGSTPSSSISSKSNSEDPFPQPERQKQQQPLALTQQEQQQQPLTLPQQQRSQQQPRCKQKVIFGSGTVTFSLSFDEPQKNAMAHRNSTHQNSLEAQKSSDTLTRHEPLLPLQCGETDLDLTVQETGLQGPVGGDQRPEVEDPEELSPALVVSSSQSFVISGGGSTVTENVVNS
Description: In-vitro assay of calcimimetics through modulation of calcium sensing receptor (intracellular calcium increase, FLIPR). Conditions: stably transfected HEK293 cells expressing hCaSR; Fluo4NW dye; 0.3 mM CaCl2; 8-point assay; read-out: EC50 in range. The format is cell-based. How it is done: In-Vitro Assay Method of Calcimimetics Through Modulation of Calcium Sensing Receptor (CaSR): The ability of the compounds to modulate Calcium sensing receptor is determined by measuring an increase in intracellular calcium [Ca^2+]i. Stably transfected HEK293 cells expressing hCaSR_pTriEx-3 hygro vector are developed. Cells are grown overnight on a 96-well plate to 80% confluency in Ham's F12 containing 20% FBS at 37° C., 5% CO2. Subsequently, cells are washed extensively with 20 mM HEPES buffer containing 126 mM […], 1 mM MgCl2 and 4 mM KCl to remove serum components that might interfere with the assay. Cells are loaded with calcium sensing Fluo4NW dye in HEPES base buffer containing 0.1% BSA and 1 mg/ml glucose for 30 minutes to measure changes in intracellular calcium. The activities of the compounds are measured in FLIPR using 0.3 mM CaCl2 in 20 mM HEPES base buffer. The effectiveness of the compound to modulate receptor activity is determined by calculating the EC50 responses for that compound in an 8-point assay and plotted using GraphPad Prism 5.
In general terms: Calcium flux is commonly read through the fluorescence of an indicator in the cells.
In the case of `COc1cccc([C@@H](C)NCc2cc(-c3ccc(C)c(C(=O)O)c3C)c3ccccc3c2)c1` [Example 109, (R)-3-(3-(((1-(3-Methoxyphenyl)ethyl)amino)methyl)naphthalen-1-yl)-2,6-dimethylbenzoic acid hydrochloride], the concentration for a half-maximal effect (EC50) fell in the range of 0.05 to 0.4 µM. Under `COc1cccc([C@@H](C)NC(C)c2cc(-c3ccc(C(F)(F)F)cc3)c3ccccc3c2)c1` (stereo partly drawn) [Example 6, (R)-1-(3-Methoxyphenyl)-N-(1-(4-(4-(trifluoromethyl)phenyl)naphthalen-2-yl)ethyl)ethanamine hydrochloride] stands below 0.02 µM.

As for `COc1cccc([C@@H](C)NC(C)c2cc(-c3ccc(C(=O)O)cc3)c3ccccc3c2)c1` (stereo partly drawn) [Example 119, 4-(3-(1-(((R)-1-(3-Methoxyphenyl)ethyl)amino)ethyl)naphthalen-1-yl)benzoic acid hydrochloride], the concentration for a half-maximal effect (EC50) lay within 0.05 to 0.4 µM. For the molecule `COc1cccc([C@@H](C)NC(C)c2cc(-c3ccc(C(=O)O)c(F)c3)c3ccccc3c2)c1` (stereo partly drawn) [Example 132, 2-Fluoro-4-(3-(1-(((R)-1-(3-methoxyphenyl)ethyl)amino)ethyl)naphthalen-1-yl)benzoic acid hydrochloride], the EC50 was in the range of 0.05 to 0.4 µM. The figure for `COc1cccc([C@@H](C)NC(C)c2cc(-c3ccc(C(F)(F)C(=O)O)cc3)c3ccccc3c2)c1` (stereo partly drawn) [Example 135, 2,2-Difluoro-2-(4-(3-(1-(((R)-1-(3-methoxyphenyl)ethyl)amino)ethyl)naphthalen-1-yl)phenyl) acetic acid hydrochloride] is below 0.02 µM; for `COc1cccc([C@@H](C)NC(C)c2cc(-c3ccc(C(F)(F)F)c(C(=O)O)c3)c3ccccc3c2)c1` (stereo partly drawn) [Example 128, 5-(3-(1-(((R)-1-(3-Methoxyphenyl)ethyl)amino)ethyl)naphthalen-1-yl)-2-(trifluoromethyl) benzoic acid hydrochloride] it is 0.05 to 0.4 µM; for `COc1cccc([C@@H](C)NC(C)c2cc(-c3ccc(OC)c(CCC(=O)O)c3)c3ccccc3c2)c1` (stereo partly drawn) [Example 131, 3-(2-Methoxy-5-(3-(1-(((R)-1-(3-methoxyphenyl)ethyl)amino)ethyl)naphthalen-1-yl)phenyl) propanoic acid hydrochloride] it is 0.02 to 0.05 µM. The figure for `COc1cccc([C@@H](C)NCc2cc(-c3cccc(C(=O)O)c3F)c3ccccc3c2)c1` [Example 103, (R)-2-Fluoro-3-(3-(((1-(3-methoxyphenyl)ethyl)amino)methyl)naphthalen-1-yl)benzoic acid hydrochloride] is 0.02 to 0.05 µM; for `C[C@@H](NCc1cc(-c2ccc(C(F)(F)F)cc2)c2ccccc2c1)c1cccc2ccccc12` [Example 1, (R)-1-(Naphthalen-1-yl)-N-((4-(4-(trifluoromethyl)phenyl)naphthalen-2-yl)methyl)ethanamine hydrochloride] it is below 0.02 µM. Under `CC(N[C@H](C)c1cccc(Cl)c1)c1cc(-c2ccc(F)cc2)c2ccccc2c1` (stereo partly drawn) [Example 16, (1R)-1-(3-Chlorophenyl)-N-(1-(4-(4-fluorophenyl)naphthalen-2-yl)ethyl)ethanamine hydrochloride] stands below 0.02 µM; under `COc1cccc([C@@H](C)NC(C)c2cc(-c3ccc(OC)c(F)c3)c3ccccc3c2)c1` (stereo partly drawn) [Example 7, 1-(4-(3-Fluoro-4-methoxyphenyl)naphthalen-2-yl)-N-((R)-1-(3-methoxyphenyl)ethyl)ethanamine hydrochloride], below 0.02 µM; under `COc1cccc([C@@H](C)NCc2cc(-c3ccc(C)c(C(=O)O)c3)c3ccccc3c2)c1` [Example 90, (R)-5-(3-(((1-(3-Methoxyphenyl)ethyl)amino)methyl)naphthalen-1-yl)-2-methylbenzoic acid hydrochloride], below 0.02 µM. As for `CCOc1cccc([C@@H](C)NC(C)c2cc(-c3ccc(F)c(C(=O)O)c3)c3ccccc3c2)c1` (stereo partly drawn) [Example 126, 5-(3-(1-(((R)-1-(3-Ethoxyphenyl)ethyl)amino)ethyl)naphthalen-1-yl)-2-fluorobenzoic acid hydrochloride], the EC50 is below 0.02 µM.

Regarding `CCOc1cccc([C@@H](C)NC(C)c2cc(-c3ccc(C)c(C(=O)O)c3)c3ccccc3c2)c1` (stereo partly drawn) [Example 143, 5-(3-(1-(((R)-1-(3-Ethoxyphenyl)ethyl)amino)ethyl)naphthalen-1-yl)-2-methylbenzoic acid hydrochloride], the EC50 was 0.02 to 0.05 µM. In the case of `COc1cc([C@@H](C)NCc2cc(-c3ccc(C)c(C(=O)O)c3)c3ccccc3c2)ccc1F` [Example 93, (R)-5-(3-(((1-(4-Fluoro-3-methoxyphenyl)ethyl)amino)methyl)naphthalen-1-yl)-2-methylbenzoic acid hydrochloride], the half-maximal effective concentration (EC50) is 0.05 to 0.4 µM. Regarding `COc1cc(C(=O)O)cc(-c2cc(C(C)N[C@H](C)c3cccc(OC)c3)cc3ccccc23)c1` (stereo partly drawn) [Example 150, 3-Methoxy-5-(3-(1-(((R)-1-(3-methoxyphenyl)ethyl)amino)ethyl)naphthalen-1-yl)benzoic acid hydrochloride], the 50% effective concentration (EC50) was in the range of 0.05 to 0.4 µM. For the molecule `COc1cccc([C@@H](C)NCc2cc(-c3ccc(C(C)(C)C(=O)O)cc3)c3ccccc3c2)c1` [Example 111, (R)-2-(4-(3-(((1-(3-Methoxyphenyl)ethyl)amino)methyl)naphthalen-1-yl)phenyl)-2-methylpropanoic acid hydrochloride], the concentration giving a half-maximal response (EC50) lay within 0.05 to 0.4 µM. On to `CCC(N[C@H](C)c1cccc(Cl)c1)c1cc(-c2ccc(F)c(CCC(=O)O)c2)c2ccccc2c1` (stereo partly drawn) [Example 152, 3-(5-(3-(1-(((R)-1-(3-Chlorophenyl)ethyl)amino)propyl)naphthalen-1-yl)-2-fluorophenyl)propanoic acid hydrochloride], for which the 50% effective concentration (EC50) is 0.05 to 0.4 µM. Take `COc1cccc([C@@H](C)NCc2cc(-c3ccc(F)c(C(=O)O)c3)c3ccccc3c2)c1` [Example 97, (R)-2-Fluoro-5-(3-(((1-(3-methoxyphenyl)ethyl)amino)methyl)naphthalen-1-yl)benzoic acid hydrochloride]: the EC50 was below 0.02 µM. In the case of `COc1cccc([C@@H](C)NC(C)c2cc(-c3ccc(C)c(C(=O)O)c3)c3ccccc3c2)c1` (single isomer, unassigned) [Example 114b, hydrochloride], the EC50 fell in the range of 0.02 to 0.05 µM. Regarding `COC(=O)c1cc(-c2cc(CN[C@H](C)c3cccc(OC)c3)cc3ccccc23)ccc1C` [Example 155, (R)-Methyl 5-(3-(((1-(3-methoxyphenyl)ethyl)amino)methyl)naphthalen-1-yl)-2-methylbenzoate hydrochloride], the concentration giving a half-maximal response (EC50) was below 0.02 µM. The figure for `CCC(N[C@H](C)c1cccc(OC)c1)c1cc(-c2ccc(F)c(CCC(=O)O)c2)c2ccccc2c1` (stereo partly drawn) [Example 140, 3-(2-Fluoro-5-(3-(1-(((R)-1-(3-methoxyphenyl)ethyl)amino)propyl)naphthalen-1-yl)phenyl)propanoic acid hydrochloride] is 0.05 to 0.4 µM. Under `COc1cccc([C@@H](C)NC(C)c2cc(-c3cc(F)cc(C(=O)O)c3)c3ccccc3c2)c1` (stereo partly drawn) [Example 118, 3-Fluoro-5-(3-(1-(((R)-1-(3-methoxyphenyl)ethyl)amino)ethyl)naphthalen-1-yl)benzoic acid hydrochloride] stands below 0.02 µM; under `COc1cc([C@@H](C)NCc2cc(-c3ccc(C(F)(F)F)cc3)c3ccccc3c2)ccc1F` [Example 2, (R)-1-(4-Fluoro-3-methoxyphenyl)-N-((4-(4-(trifluoromethyl)phenyl)naphthalen-2-yl)methyl)ethanamine hydrochloride], 0.02 to 0.05 µM; under `COc1cc([C@@H](C)NC(C)c2cc(-c3ccc(C)c(C(=O)O)c3)c3ccccc3c2)ccc1F` (stereo partly drawn) [Example 115, 5-(3-(1-(((R)-1-(4-Fluoro-3-methoxyphenyl)ethyl)amino)ethyl)naphthalen-1-yl)-2-methylbenzoic acid hydrochloride], 0.05 to 0.4 µM.

Usually EC50 stands for the concentration giving half of the maximal effect.
